From US11851391B2, “Antifungal compounds and methods of forming the same” (University of Kentucky Research Foundation, priority 2018, dated 2023)
Converted amounts (≈) assume the structure as drawn. Where two headings read alike, the source gives them in different places.

Columns and labels:
[1] = test system: Aspergillus terreus ATCC MYA-3633 (strain M); assay: MIC determination against filamentous fungi (CLSI M38-A2); format: cell-based; settings: Aspergillus terreus, 48 h, MIC-0, 48 h at 35° C., read-out: MIC
Method: (§1) The activity of N,N′-diaryl-bishydrazones 7-22 was tested against a panel of seven strains of C. albicans: ATCC 10231(R) (A), ATCC 64124(R) (B), ATCC MYA-2876(S) (C), ATCC 90819(R) (D), ATCC MYA-2310(S) (E), ATCC MYA-1237(R) (F), and ATCC MYA-1003(R) (G). The activity of these bishydrazones 7-22 was also explored against a panel of three non-albicans Candida strains: C. glabrata ATCC 2001 (H), C. krusei ATCC 6258 (I), and C. parapsilosis ATCC 22019 (J). Finally, the activity of these bishydrazones 7-22 was explored against three Aspergillus strains: A. flavus ATCC MYA-3631 (K), A. nidulans ATCC 38163 (L), and A. terreus ATCC MYA-3633 (M).
(§2) Candida albicans ATCC 10231 (A), C. albicans ATCC 64124 (B), and C. albicans ATCC MYA-2876 (C) were kindly provided by Dr. Jon Y. Takemoto (Utah State University, Logan, UT, USA). C. albicans ATCC 90819 (D), C. albicans ATCC MYA-2310 (E), C. albicans ATCC MYA-1237 (F), C. albicans ATCC MYA-1003 (G), Candida glabrata ATCC 2001 (H), Candida krusei ATCC 6258 (I), Candida parapsilosis ATCC 22019 (J), Aspergillus flavus ATCC MYA-3631 (K), and Aspergillus terreus ATCC MYA-3633 (M) were obtained from the American Type Culture Collection (ATCC; Manassas, VA, USA). Aspergillus nidulans ATCC 38163 (L) was received from Dr. Jon S. Thorson (University of Kentucky, Lexington, KY, USA). Filamentous fungi and yeasts were cultivated at 35° C. in RPMI 1640 medium (with 1-glutamine, without sodium biocarbonate, Sigma-Aldrich, St. Louis, MO) buffered to a pH of 7.0 with 0.165 M morpholinepropanesulfonic acid (MOPS) buffer (Sigma-Aldrich).
(§3) Similarly, the MIC values of compounds 7a-24c, as well as that of the two control drugs against filamentous fungi (strains K-M) were determined as previously described in CLSI document M38-A2. Spores were harvested from sporulating cultures growing on potato dextrose agar (PDA) by filtration through sterile glass wool and enumerated by using a hemocytometer to obtain the desired inoculum size. […] Spore suspensions were added to the wells to afford a final concentration of 5×10^5 CFU/mL. The plates were incubated at 35° C. for 48 h. The MIC values of compounds 7a-24c and CAS against filamentous fungi were based on the complete inhibition of growth when compared to the growth control (MIC-0). […] Each test was performed in triplicate.

[2] = test system: Aspergillus nidulans ATCC 38163 (strain L); assay: as above; format: cell-based; settings: Aspergillus nidulans, ATCC38163, 48 h, MIC-0, 48 h at 35° C., read-out: MIC
Method: as §1, §2, §3

[3] = test system: Aspergillus flavus ATCC MYA-3631 (strain K); assay: as above; format: cell-based; settings: Aspergillus flavus, 48 h, MIC-0, 48 h at 35° C., read-out: MIC
Method: as §1, §2, §3

[4] = test system: C. albicans ATCC MYA-1237(R) (strain F); assay: MIC determination, in vitro antifungal assay (CLSI M27-A3); format: cell-based, Candida albicans; settings: MIC-0, 48 h at 35° C.
Method: as §1, §2
(§4) The MIC values of compounds 7a-24c against yeast cells (strains A-J) were determined in 96-well plates as described in the CLSI document M27-A3 with minor modifications. A single colony of freshly prepared yeast cells was used to inoculate 5 mL of yeast extract peptone dextrose (YPD) broth prior to incubation overnight with shaking at 200 rpm at 35° C. From the actively growing yeast culture, 100 μL were then transferred to 900 μL of sterile ddH2O and re-adjusted to achieve OD600 of 0.12 (˜1×10^6 CFU/mL). The cell suspension was further diluted to achieve 2-4×10^3 CFU/mL in RPMI 1640 medium. […] The final concentration of DMSO was ensured to be <1.25% in all experiments. The MIC values for compounds 7a-24c and CAS were defined as the minimum drug concentration that yielded complete inhibition (also known as MIC-0).

[5] = test system: C. albicans ATCC 90819(R) (strain D); assay: as above; format: cell-based, Candida albicans; settings: Candida albicans, ATCC90819, 48 h, MIC-0, 48 h at 35° C., read-out: MIC
Method: as §1, §2, §4

[6] = test system: C. albicans ATCC MYA-2310(S) (strain E); assay: as above; format: cell-based, Candida albicans; settings: MIC-0, 48 h at 35° C.
Method: as §1, §2, §4

[7] = test system: C. albicans ATCC 64124(R) (strain B); assay: as above; format: cell-based, Candida albicans; settings: strain B, MIC-0, 48 h at 35° C.
Method: as §1, §2, §4

[8] = test system: Candida parapsilosis ATCC 22019 (strain J); assay: as above; format: cell-based; settings: strain J, MIC-0, 48 h at 35° C.
Method: as §1, §2, §4

[9] = test system: Candida albicans ATCC 10231(R) (strain A); assay: as above; format: cell-based; settings: MIC-0 (no visible growth), 48 h at 35° C.
Method: as §1, §2, §4

[10] = test system: C. albicans ATCC MYA-1003(R) (strain G); assay: as above; format: cell-based, Candida albicans; settings: MIC-0, 48 h at 35° C.
Method: as §1, §2
(§5) A single colony of freshly prepared yeast cells was used to inoculate 5 mL of yeast extract peptone dextrose (YPD) broth prior to incubation overnight with shaking at 200 rpm at 35° C. From the actively growing yeast culture, 100 μL were then transferred to 900 μL of sterile ddH2O and re-adjusted to achieve OD600 of 0.12 (˜1×10^6 CFU/mL). The cell suspension was further diluted to achieve 2-4×10^3 CFU/mL in RPMI 1640 medium. […] The final concentration of DMSO was ensured to be <1.25% in all experiments.

[11] = test system: C. albicans ATCC MYA-2876(S) (strain C); assay: as above; format: cell-based, Candida albicans; settings: MIC-0, 48 h at 35° C.
Method: as §1, §2, §5

[12] = test system: Candida glabrata ATCC 2001 (strain H); assay: as above; format: cell-based; settings: MIC-0, 48 h at 35° C.
Method: as §1, §2, §5

[13] = test system: Candida krusei ATCC 6258 (strain I); assay: as above; format: cell-based; settings: MIC-0, 48 h at 35° C.
Method: as §1, §2, §5

[14] = Candida albicans, 48 h, read-out: MIC
[15] = Candida albicans, ATCC64124, 48 h, read-out: MIC
[16] = Lodderomyces parapsilosis, ATCC22019, 48 h, read-out: MIC
[17] = Candida albicans, ATCC10231, 48 h, read-out: MIC
[18] = Nakaseomyces glabratus, ATCC2001, 48 h, read-out: MIC
[19] = Pichia kudriavzevii, ATCC6258, 48 h, read-out: MIC

SMILES | MIC [1] [µg/mL] | MIC [2] [µg/mL] | MIC [3] [µg/mL] | MIC [4, 14] [µg/mL] | MIC [5] [µg/mL] | MIC [6, 14] [µg/mL] | MIC [7, 15] [µg/mL] | MIC [8, 16] [µg/mL] | MIC [9, 17] [µg/mL] | MIC [10, 14] [µg/mL] | MIC [11, 14] [µg/mL] | MIC [12, 18] [µg/mL] | MIC [13, 19] [µg/mL] | MIC [12] [µg/mL] | other results
CC[C@H](C)C[C@H](C)CCCCCCCCC(=O)N[C@H]1C[C@@H](O)[C@@H](NCCN)NC(=O)[C@@H]2[C@@H](O)CCN2C(=O)[C@H]([C@H](O)CCN)NC(=O)[C@H]([C@H](O)[C@@H](O)c2ccc(O)cc2)NC(=O)[C@@H]2C[C@@H](O)CN2C(=O)[C@H]([C@@H](C)O)NC1=O [CAS, caspofungin, reference compound] | > 31.3 | > 31.3 | > 31.3 | 0.24 (≈ 0.22 µM) | 0.12 (≈ 0.11 µM) | 0.12 (≈ 0.11 µM) | 0.24 (≈ 0.22 µM) | 1.95 (≈ 1.78 µM) | 0.975 (≈ 0.892 µM) | 0.48 (≈ 0.439 µM) | 0.06 (≈ 0.0549 µM) | 0.06 (≈ 0.0549 µM) | 0.48 (≈ 0.439 µM) |  | 
Fc1ccccc1N/N=C/c1ccc(-c2cccc(/C=N/Nc3ccccc3F)c2)cc1 [Compound 10a] | > 31.3 | 7.8 (≈ 18.3 µM) | 3.9 (≈ 9.14 µM) | > 31.3 | 15.6 (≈ 36.6 µM) | 31.3 (≈ 73.4 µM) | 7.8 (≈ 18.3 µM) | 15.6 (≈ 36.6 µM) | 7.8 (≈ 18.3 µM) | 7.8 (≈ 18.3 µM) | > 31.3 | > 31.3 | 1.95 (≈ 4.57 µM) |  | 
Fc1ccccc1N/N=C/c1ccc(-c2ccc(/C=N/Nc3ccccc3F)cc2)cc1 [Compound 10b] | > 31.3 | 31.3 (≈ 73.4 µM) | > 31.3 | > 31.3 | 31.3 (≈ 73.4 µM) | > 31.3 | > 31.3 | > 31.3 | 3.9 (≈ 9.14 µM) | 15.6 (≈ 36.6 µM) | 15.6 (≈ 36.6 µM) | > 31.3 | 3.9 (≈ 9.14 µM) |  | 
COc1cccc(N/N=C(\C)c2ccc(-c3ccc(/C(C)=N/Nc4cccc(OC)c4)cc3)cc2)c1 [Compound 11c] | > 31.3 | > 31.3 | > 31.3 | 31.3 (≈ 65.4 µM) | 31.3 (≈ 65.4 µM) | 15.6 (≈ 32.6 µM) | 0.98 to 3.9 (≈ 2.05 to 8.15 µM) | 15.6 (≈ 32.6 µM) | 0.98 to 3.9 (≈ 2.05 to 8.15 µM) |  | 15.6 (≈ 32.6 µM) | 15.6 (≈ 32.6 µM) | 0.98 to 3.9 (≈ 2.05 to 8.15 µM) | 15.6 (≈ 32.6 µM) | MIC [6]: 15.6 µg/mL (≈ 32.6 µM); MIC [7]: 0.98 µg/mL (≈ 2.05 µM); MIC [8]: 15.6 µg/mL (≈ 32.6 µM); MIC [9]: 0.98 µg/mL (≈ 2.05 µM); MIC [11]: 15.6 µg/mL (≈ 32.6 µM); MIC [13]: 0.98 µg/mL (≈ 2.05 µM)
COc1ccc(N/N=C(\C)c2ccc(-c3ccc(/C(C)=N/Nc4ccc(OC)cc4)cc3)cc2)cc1 [Compound 15c] | > 31.3 | > 31.3 | > 31.3 | 7.8 to 15.6 (≈ 16.3 to 32.6 µM) | 31.3 (≈ 65.4 µM) | 7.8 to 15.6 (≈ 16.3 to 32.6 µM) | 7.8 to 15.6 (≈ 16.3 to 32.6 µM) | > 31.3 | 7.8 to 15.6 (≈ 16.3 to 32.6 µM) | 7.8 to 15.6 (≈ 16.3 to 32.6 µM) | 7.8 to 15.6 (≈ 16.3 to 32.6 µM) | 7.8 to 15.6 (≈ 16.3 to 32.6 µM) | 7.8 to 15.6 (≈ 16.3 to 32.6 µM) | 7.8 (≈ 16.3 µM) | MIC [4]: 7.8 µg/mL (≈ 16.3 µM); MIC [6]: 15.6 µg/mL (≈ 32.6 µM); MIC [7]: 15.6 µg/mL (≈ 32.6 µM); MIC [9]: 15.6 µg/mL (≈ 32.6 µM); MIC [10]: 7.8 µg/mL (≈ 16.3 µM); MIC [11]: 15.6 µg/mL (≈ 32.6 µM); MIC [13]: 15.6 µg/mL (≈ 32.6 µM)
Brc1ccc(N/N=C/c2ccc(-c3cccc(/C=N/Nc4ccc(Br)cc4)c3)cc2)cc1 [Compound 19a] | > 31.3 | > 31.3 | 31.3 (≈ 57.1 µM) | 7.8 (≈ 14.2 µM) | > 31.3 | > 31.3 | 31.3 (≈ 57.1 µM) | > 31.3 | 31.3 (≈ 57.1 µM) | 31.3 (≈ 57.1 µM) | 31.3 (≈ 57.1 µM) | 7.8 (≈ 14.2 µM) | > 31.3 | 7.8 (≈ 14.2 µM) | MIC [4]: 7.8 µg/mL (≈ 14.2 µM)
Fc1ccc(F)c(N/N=C/c2ccc(-c3cccc(/C=N/Nc4cc(F)ccc4F)c3)cc2)c1 [Compound 21a] | > 31.3 | > 31.3 | > 31.3 | > 31.3 | > 31.3 | > 31.3 | > 31.3 | > 31.3 | > 31.3 | > 31.3 | > 31.3 | > 31.3 | > 31.3 |  | 
